Data: patent US7456171B2, “1,4-Diazabicyclo[3.2.2]nonanecarboxamide derivatives, preparation and therapeutic use thereof” (Sanofi-Aventis, priority 2002, dated 2008)

**Q.** For O=C(c1c[nH]c2nc(Cl)ccc12)N1CCN2CCC1CC2, which melting point is on record?
**A.** 228 to 229 °C
